Assay results: US20130210034A1, “COMPLEX PHOSPHOPROTEIN ACTIVATION PROFILES” (BECKMAN COULTER, INC., priority 2005, published 2013)
“And” between values parts separate entries of the source, which are not always exact repeats. Equal entries are not always repeated.

Tests used:
Test in all cases: Cytokine-stimulated phosphorylation in immunophenotypically defined cell populations from healthy donor BM (flow cytometry);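 as to pSTAT3 S/N ratio: Phosphoprotein MFI normalized to lymphocyte MFI as internal negative control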;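 as to pSTAT5 S/N ratio: Phosphoprotein MFI normalized to lymphocyte MFI as internal negative control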
Type in all cases: cell-based, human
[1] = test system: pSTAT5; conditions: healthy donor BM, mean ± SD;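 as to pSTAT5 S/N ratio: Phosphoprotein MFI normalized to lymphocyte MFI as internal negative control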
Description: (§1) Bone marrow (BM) samples were collected in 7.5 mL Iscove's modified Dulbecco's medium (IMDM) supplemented with 100U penicillin, 0.01 mg/mL streptomycin, and 70 μg/mL heparin sodium salt from 10 patients undergoing hip replacement surgery, who were otherwise healthy. These patients were from a pool of surgery patients, age 49 to 77, and represented […] patients. […] These BM samples were rinsed twice with IMDM to release cells, filtered using a 100 μm Nylon cell strainer to remove marrow particles, and centrifuged for at RT fro 7 minutes at 200 g. The cell pellet was washed twice with sterile IMDM to remove traces of fat and re-suspended in IMDM to a concentration of 3×10^7 cells/mL.
(§2) To assess the signal transduction response after growth factor simulation, a series comprising two sets of tubes including about 3×10^6 cells/100 μL were incubated at 37° C. for 30 minutes. After this pre-incubation period, tubes with then processes with either a stimulant or inhibitor. […] To examine the effects of protein phosphorylation inhibition, tubes were incubated with an inhibitor cocktail comprising 100 μM/100 μL UO126, 1 μM/100 μL LY294002, and 1 μM/100 μL rapamycin. One unstimulated tube receiving no stimulant or inhibitor was processed to assess basal levels of phospho-protein expression. After stimulation the cells were immediately fixed in 10% formaldehyde solution at 37° C. Pre-labeling with CD13, CD16 and CD64 antibodies was carried out 20 minutes prior to formaldehyde fixation. After fixation, one set of tubes was permeabilized without methanol for pAKT, pERK and pS6 staining and the other for 80% methanol permeabilized for pSTAT3 and pSTAT5 staining. After permeablization, the cells were washed in PBS with 2% BSA and blocked by re-suspended in 75 μL of PBS comprising 25% heat inactivated normal mouse serum, 25% normal rabbit serum. To stain cells with fluorescent conjugated monoclonal antibodies, samples were incubated on ice for 45 minutes in 100 μL of an antibody staining solution including either: 1) CD15-Pacific Orange, CD34-Phycoerythrin-Texas Red, CD117-Phycoerythrin-Cyanin 5.5, CD45-Allophycocyanin-Alexa Fluor 750 (or CD45-Pacific Orange, in which case CD15-Pacific Orange was omitted), pS6-Pacific Blue, pERK-Alexa Fluor 488 and pAKT-Alexa Fluor 647 or 2) CD15-Pacific Orange, CD34-Phycoerythrin-Texas Red, CD117-Phycoerythrin-Cyanin 5.5, CD45-Allophycocyanin-Alexa Fluor 750 or CD45-Pacific Blue, pSTAT3-Alexa Fluor 488 and pSTAT5-Phycoerythrin. The stained cells were washed twice with ice cold PBS containing 2% BSA and centrifuged at 800 g for 6 minutes at 4° C. The supernatant was discarded and cells re-suspended in 250 μL of chilled wash buffer for data acquisition. Stained cells were examined using either GALIOS flow cytometer (Beckman Coulter) or CYAN ADP (Beckman Coulter) equipped with 488 nm, 405 nm and 635 nm lasers to detect the degree of fluorescence. Data were analyzed using FCS Express (De Novo Software, CA) analysis software.
(§3) Specific phosphoprotein expression of pERK, pS6, pAKT, pSTAT5, and pSTAT3 was examined in seven discrete phenotypically defined populations based on 7-color immunophenotyping (FIG. 1). The percent of responding (phosphorprotein positive) cells for each of these populations was determined from individual single parameter histograms based on a fixed integration region set on the inhibitor treated control at about 3% positives.

[2] = test system: pSTAT3; conditions: healthy donor BM, mean ± SD;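 as to pSTAT3 S/N ratio: Phosphoprotein MFI normalized to lymphocyte MFI as internal negative control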
Description: as §1, §2, §3

[3] = test system: pS6; conditions: for pS6 Percent (%) Responding Cells, Mean / pS6 S/N ratio: healthy donor BM, mean ± SD
Description: as §1, §2, §3

[4] = test system: pERK; conditions: for pERK Percent (%) Responding Cells, Mean / pERK S/N ratio: healthy donor BM, mean ± SD
Description: as §1, §2, §3

[5] = test system: pAKT; conditions: for pAKT Percent (%) Responding Cells, Mean / pAKT S/N ratio: healthy donor BM, mean ± SD
Description: as §1, §2, §3

Stem Cell Factor [SCF]
pSTAT5 Percent (%) Responding Cells, Mean ([1]; CD34^+ (CD34^+/CD117^+ cells)): 11.6 ± 3.0%
pSTAT5 S/N ratio ([1]; CD34^+ (CD34^+/CD117^+ cells)): 1.5 ± 0.9
pSTAT5 Percent (%) Responding Cells, Mean ([1]; CD117^+ (CD34^−/CD117^+ cells)): 7.4 ± 4.7%
pSTAT5 S/N ratio ([1]; CD117^+ (CD34^−/CD117^+ cells)): 2.2 ± 0.7
pSTAT5 Percent (%) Responding Cells, Mean ([1]; G1, immature myeloid cells): 6.8 ± 8.0%
pSTAT5 S/N ratio ([1]; G1, immature myeloid cells): 3.1 ± 0.7
pSTAT5 Percent (%) Responding Cells, Mean ([1]; G2, intermediate myeloid cells): 4.9 ± 5.6%
pSTAT5 S/N ratio ([1]; G2, intermediate myeloid cells): 3.2 ± 0.7
pSTAT5 Percent (%) Responding Cells, Mean ([1]; G3, mature myeloid cells): 6.9 ± 6.7%
pSTAT5 S/N ratio ([1]; G3, mature myeloid cells): 3.8 ± 0.8
pSTAT5 Percent (%) Responding Cells, Mean ([1]; Mono, monocytes): 9.5 ± 13.8%
pSTAT5 S/N ratio ([1]; Mono, monocytes): 2.5 ± 0.6
pSTAT3 Percent (%) Responding Cells, Mean ([2]; CD34^+ (CD34^+/CD117^+ cells)): 7.3 ± 4.3%
pSTAT3 S/N ratio ([2]; CD34^+ (CD34^+/CD117^+ cells)): 1.9 ± 0.2
pSTAT3 Percent (%) Responding Cells, Mean ([2]; CD117^+ (CD34^−/CD117^+ cells)): 2.6 ± 1.4%
pSTAT3 S/N ratio ([2]; CD117^+ (CD34^−/CD117^+ cells)): 2.5 ± 0.6
pSTAT3 Percent (%) Responding Cells, Mean ([2]; G1, immature myeloid cells): 3.0 ± 3.5%
pSTAT3 S/N ratio ([2]; G1, immature myeloid cells): 3.3 ± 0.5
pSTAT3 Percent (%) Responding Cells, Mean ([2]; G2, intermediate myeloid cells): 2.2 ± 1.8%
pSTAT3 S/N ratio ([2]; G2, intermediate myeloid cells): 3.3 ± 0.5
pSTAT3 Percent (%) Responding Cells, Mean ([2]; G3, mature myeloid cells): 4.7 ± 4.0%
pSTAT3 S/N ratio ([2]; G3, mature myeloid cells): 3.6 ± 0.6
pSTAT3 Percent (%) Responding Cells, Mean ([2]; Mono, monocytes): 4.4 ± 2.0%
pSTAT3 S/N ratio ([2]; Mono, monocytes): 2.4 ± 0.3
pS6 Percent (%) Responding Cells, Mean ([3]; CD34^+ (CD34^+/CD117^+ cells)): 81.7% and 81.7 ± 16.3%
pS6 S/N ratio ([3]; CD34^+ (CD34^+/CD117^+ cells)): 48.4 and 48.4 ± 39.3
pS6 fraction positive responding ([3]; CD34^−CD117^+ cells, normal BM, non-homogeneous response): 53.8%
pS6 Percent (%) Responding Cells, Mean ([3]; CD117^+ (CD34^−/CD117^+ cells)): 51.9% and 51.9 ± 16.9%
pS6 S/N ratio ([3]; CD117^+ (CD34^−/CD117^+ cells)): 108.2 ± 94.9
pS6 Percent (%) Responding Cells, Mean ([3]; G1, immature myeloid cells): 2.1 ± 1.4%
pS6 S/N ratio ([3]; G1, immature myeloid cells): 3.3 ± 1.9
pS6 Percent (%) Responding Cells, Mean ([3]; G2, intermediate myeloid cells): 2.1 ± 1.2%
pS6 S/N ratio ([3]; G2, intermediate myeloid cells): 2.9 ± 1.8
pS6 Percent (%) Responding Cells, Mean ([3]; G3, mature myeloid cells): 3.8 ± 2.6%
pS6 S/N ratio ([3]; G3, mature myeloid cells): 3.5 ± 2.3
pS6 Percent (%) Responding Cells, Mean ([3]; Mono, monocytes): 43.5 ± 19.9%
pS6 S/N ratio ([3]; Mono, monocytes): 11.2 ± 12.3
pERK Percent (%) Responding Cells, Mean ([4]; CD34^+ (CD34^+/CD117^+ cells)): 89.8% and 89.8 ± 6.9%
pERK S/N ratio ([4]; CD34^+ (CD34^+/CD117^+ cells)): 13.3 and 13.3 ± 4.9
pERK Percent (%) Responding Cells, Mean ([4]; CD117^+ (CD34^−/CD117^+ cells)): 67.7% and 67.7 ± 20.1%
pERK S/N ratio ([4]; CD117^+ (CD34^−/CD117^+ cells)): 8.6 ± 3.2
pERK Percent (%) Responding Cells, Mean ([4]; G1, immature myeloid cells): 1.6 ± 0.8%
pERK S/N ratio ([4]; G1, immature myeloid cells): 2.9 ± 0.6
pERK Percent (%) Responding Cells, Mean ([4]; G2, intermediate myeloid cells): 2.8 ± 2.1%
pERK S/N ratio ([4]; G2, intermediate myeloid cells): 2.7 ± 0.5
pERK Percent (%) Responding Cells, Mean ([4]; G3, mature myeloid cells): 6.5 ± 7.2%
pERK S/N ratio ([4]; G3, mature myeloid cells): 3.1 ± 0.6
pERK Percent (%) Responding Cells, Mean ([4]; Mono, monocytes): 13.6 ± 3.6%
pERK S/N ratio ([4]; Mono, monocytes): 3.2 ± 2.1
pERK, Normal Sample (first AML5 line) ([4]; Table 7 comparison value, matches S/N ratio of Table 1): 13.3
pERK, Normal Sample ([4]; Table 7 comparison value, matches percent responding CD34^+ cells of Tables 1-5): 89.8
pAKT Percent (%) Responding Cells, Mean ([5]; CD34^+ (CD34^+/CD117^+ cells)): 58.0% and 58.0 ± 27.3%
pAKT S/N ratio ([5]; CD34^+ (CD34^+/CD117^+ cells)): 7.5 and 7.5 ± 5.7
pAKT Percent (%) Responding Cells, Mean ([5]; CD117^+ (CD34^−/CD117^+ cells)): 60.6% and 60.6 ± 33.5%
pAKT S/N ratio ([5]; CD117^+ (CD34^−/CD117^+ cells)): 7.3 ± 5.4
pAKT Percent (%) Responding Cells, Mean ([5]; G1, immature myeloid cells): 2.9 ± 2.4%
pAKT S/N ratio ([5]; G1, immature myeloid cells): 2.2 ± 1.1
pAKT Percent (%) Responding Cells, Mean ([5]; G2, intermediate myeloid cells): 3.9 ± 3.9%
pAKT S/N ratio ([5]; G2, intermediate myeloid cells): 2.3 ± 1.0
pAKT Percent (%) Responding Cells, Mean ([5]; G3, mature myeloid cells): 4.2 ± 3.0%
pAKT S/N ratio ([5]; G3, mature myeloid cells): 2.6 ± 1.2
pAKT Percent (%) Responding Cells, Mean ([5]; Mono, monocytes): 6.5 ± 8.2%
pAKT S/N ratio ([5]; Mono, monocytes): 2.4 ± 1.0
pAKT, Normal Sample ([5]; Table 7 comparison value): 58.0
